Laboratory results as given in patent US6730669B2, “Amino acid hydroxyethylamino sulfonamide retroviral protease inhibitors” (G. D. Searle & Co., priority 1995, dated 2004).

Key:
HIV-1 = test: CEM cell assay: HIV inhibition assay of acutely infected cells (tetrazolium based colorimetric, MTT); settings: Human immunodeficiency virus 1, CCRF-CEM, 168 h; Table 21; CEM cells acutely infected with HIV-1, 7 days, MTT readout
Experimental: The effectiveness of various compounds were determined in the above-described enzyme assay and in a CEM cell assay. The HIV inhibition assay method of acutely infected cells is an automated tetrazolium based colorimetric assay essentially that reported by Pauwles et al, J. Virol. Methods, 20, 309-321 (1988). Assays were performed in 96-well tissue culture plates. CEM cells, a CD4+cell line, were grown in RPMI-1640 medium (Gibco) supplemented with a 10% fetal calf serum and were then treated with polybrene (2 μg/ml). An 80 μl volume of medium containing 1×10^4 cells was dispensed into each well of the tissue culture plate. To each well was added a 100 μl volume of test compound dissolved in tissue culture medium (or medium without test compound as a control) to achieve the desired final concentration and the cells were incubated at 37° C. for 1 hour. A frozen culture of HIV-1 was diluted in culture medium to a concentration of 5×10^4 TCID50 per ml (TCID50=the dose of virus that infects 50% of cells in tissue culture), and a 20 μL volume of the virus sample (containing 1000 TCID50 of virus) was added to wells containing test compound and to wells containing only medium (infected control cells). Several wells received culture medium without virus (uninfected control cells). Likewise, the intrinsic toxicity of the test compound was determined by adding medium without virus to several wells containing test compound. In summary, the tissue culture plates contained the following experiments:
In experiments 2 and 4 the final concentrations of test compounds were 1, 10, 100 and 500 μg/ml. Either azidothymidine (AZT) or dideoxyinosine (ddI) was included as a positive drug control. […] DMSO was added to all control wells at an appropriate concentration.
Following the addition of virus, cells were incubated at 37° C. in a humidified, 5% CO2 atmosphere for 7 days. Test compounds could be added on days 0, 2 and 5 if desired. On day 7, post-infection, the cells in each well were resuspended and a 100 μl sample of each cell suspension was removed for assay. A 20 μL volume of a 5 mg/ml solution of 3-(4,5-dimethylthiazol-2-yl)-2,5-diphenyltetrazolium bromide (MTT) was added to each […] cell suspension, and the cells were incubated for 4 hours at […] in a 5% CO2 environment. […] To each sample was added 100 μl of 10% sodium dodecylsulfate in 0.01 N HCl to lyse the cells, and samples were incubated overnight. The absorbance at 590 nm was determined for each sample using a Molecular Devices microplate reader. Absorbance values for each set of wells is compared to assess viral control infection, uninfected control cell response as well as test compound by cytotoxicity and antiviral efficacy.

HIV protease = biological target: T1, HIV protease (Human immunodeficiency virus type 1 group M subtype B, UniProt P04585); test: HIV protease enzyme assay (fluorescence, substrate 2-Ile-Nle-Phe(p-NO2)-Gln-ArgNH2); format: biochemical; settings: 12.3 nanomolar enzyme, pH 6.4
T1 construct: HIV protease is diluted in the assay buffer to a final enzyme concentration of 12.3 nanomolar, based on a molecular weight of 10,780
Experimental: The compounds of the present invention are effective HIV protease inhibitors. Utilizing an enzyme assay as described below, the compounds set forth in the examples herein disclosed inhibited the HIV enzyme. […] The enzyme method is described below. The substrate is 2-Ile-Nle-Phe(p-NO2)-Gln-ArgNH2. The positive control is MVT-101 (Miller, M. et al, Science, 246, 1149 (1989)] The assay conditions are as follows:
20 mM sodium phosphate, pH 6.4
The above described substrate is dissolved in DMSO, then diluted 10 fold in assay buffer. Final substrate concentration in the assay is 80 μM. HIV protease is diluted in the assay buffer to a final enzyme concentration of 12.3 nanomolar, based on a molecular weight of 10,780.
The final concentration of DMSO is 14% and the final concentration of glycerol is 18%. The test compound is dissolved in DMSO and diluted in DMSO to 10× the test concentration; 10 μl of the enzyme preparation is added, the materials mixed and then the mixture is incubated at ambient temperature for 15 minutes. The enzyme reaction is initiated by the addition of 40 μl of substrate. The increase in fluorescence is monitored at 4 time points (0, 8, 16 and 24 minutes) at ambient temperature. Each assay is carried out in duplicate wells.

| SMILES | EC50 (HIV-1) [nM] | IC50 (HIV protease; Table 21, 80 μM substrate) [nM] | IC50 (HIV protease; Table 20, 80 μM substrate) [nM] |
| --- | --- | --- | --- |
| COc1ccc(S(=O)(=O)N(CC(C)C)C[C@@H](O)[C@H](Cc2ccccc2)NC(=O)[C@@H](NC(=O)CN2CCCC2)C(C)(C)C)cc1 [Entry 5] | 5 | 3 |  |
| CC(C)CN(C[C@@H](O)[C@H](Cc1ccccc1)NC(=O)[C@H](CS(C)(=O)=O)NC(=O)CN1CCCC1)S(=O)(=O)c1ccc2c(c1)OCO2 [Entry 3] | 120 | 8 |  |
| COc1ccc(S(=O)(=O)N(CC(C)C)C[C@@H](O)[C@H](Cc2ccccc2)NC(=O)[C@@H](NC(=O)CN2CCCC2)C(C)C)cc1 [Entry 13] | 18 | 3 |  |
| CCC(C)[C@H](NC(=O)CN1CCCC1)C(=O)N[C@@H](Cc1ccccc1)[C@H](O)CN(CC(C)C)S(=O)(=O)c1ccc2c(c1)OCO2 (stereo partly shown) [Entry 2] | 12 | 3 |  |
| CC(C)CN(C[C@@H](O)[C@H](Cc1ccccc1)NC(=O)[C@@H](NC(=O)CN1CCCC1)C(C)(C)C)S(=O)(=O)c1ccc2c(c1)CCO2 [Entry 11] | 21 | 4 |  |
| C#CC[C@H](NC(=O)CN1CCCC1)C(=O)N[C@@H](Cc1ccccc1)[C@H](O)CN(CC(C)C)S(=O)(=O)c1ccc2c(c1)OCO2 [Entry 12] | 11 | 2 |  |
| CC(C)CN(C[C@@H](O)[C@H](Cc1ccccc1)NC(=O)[C@@H](NC(=O)CN1CCCC1)C(C)(C)C)S(=O)(=O)c1ccc2c(c1)OCO2 [Entry 1] | 7 | 3 |  |
| COC(=O)Nc1nc2cc(S(=O)(=O)N(CC(C)C)C[C@@H](O)[C@H](Cc3ccccc3)NC(=O)[C@@H](NC(=O)CN3CCCC3)C(C)(C)C)ccc2[nH]1 [Entry 7] | 29 | 2 |  |
| CC(C)CN(C[C@@H](O)[C@H](Cc1ccccc1)NC(=O)[C@@H](NC(=O)CN1CCCC1)C(C)(C)C)S(=O)(=O)c1ccccc1 [Entry 4] | 12 | 4 |  |
| CCC(C)[C@H](NC(=O)CN1CCCC1)C(=O)N[C@@H](Cc1ccccc1)[C@H](O)CN(CC(C)C)S(=O)(=O)c1ccc2c(c1)CCO2 (stereo partly shown) [Entry 2] |  |  | 2 |
| CCC(C)[C@H](NC(=O)CN1CCCC1)C(=O)N[C@@H](Cc1ccccc1)[C@H](O)CN(CC(C)C)S(=O)(=O)c1ccccc1 (stereo partly shown) [Entry 1] |  |  | 4 |
| CC(C)CN(C[C@@H](O)[C@H](Cc1ccccc1)NC(=O)[C@@H](NC(=O)CN1CCCC1)C(C)(C)C)S(=O)(=O)c1ccc2ncsc2c1 [Entry 8] | 16 | 3 |  |
| CC(C)CN(C[C@@H](O)[C@H](Cc1ccccc1)NC(=O)[C@@H](NC(=O)CN1CCCC1)C(C)C)S(=O)(=O)c1ccc2c(c1)OCO2 [Entry 6] | 6 | 3 |  |
| CC(C)CN(C[C@@H](O)[C@H](Cc1ccccc1)NC(=O)[C@@H](NC(=O)CN1CCCC1)C(C)(C)S(C)(=O)=O)S(=O)(=O)c1ccc2c(c1)OCO2 [Entry 10] | 39 | 4 |  |
| CCC(C)[C@H](NC(=O)CN1CCCC1)C(=O)N[C@@H](Cc1ccccc1)[C@H](O)CN(CC(C)C)S(=O)(=O)c1ccc(OC)cc1 (stereo partly shown) [Entry 9] | 16 | 3 |  |
